Reference: article PMC7125202, “Targeting of radioactive platinum-bisphosphonate anticancer drugs to bone of high metabolic activity” (Scientific Reports, 2020)

Assays:
[1] = Pt-BP pH stability assessed by 31P NMR; assay type: physicochemical; conditions: 120 mM NaCl, D2O, 37 °C
Procedure: ^31P NMR spectra were recorded on a Bruker Avance III […] instrument. Standard pulse sequences were used for ^31P{1H} (121.5 MHz) spectra. Chemical shifts (^31P) were referenced to external H3PO4 (85% w/w; 0 ppm). A Crison Micro-pH meter Model 2002, equipped with Crison microcombination electrodes (5- and 3-mm diameter) and calibrated with Crison standard buffer solution at pH 4.01, 7.02, and 10.00, was used for pH measurements. The pH readings from the pH meter for D2O solutions are indicated as pD values and are uncorrected for the effect of deuterium on glass electrodes. The stability of Pt-BP in buffered solutions at 37 °C was assessed by ^31P NMR spectroscopy as previously reported. Pt-BP (∼4 mg) was dissolved in 0.8 mL of D2O containing (i) 50 mM 4-(2-hydroxyethyl)-1-piperazineethanesulfonic acid) (HEPES) buffer (pD = 7.4) and 120 mM NaCl or (ii) 50 mM 2-(N-morpholino)ethanesulfonic acid (MES) buffer (pD = 5.25) and 120 mM NaCl. The resulting two solutions were transferred into NMR tubes and maintained at 37 °C. ^31P NMR spectra were recorded over a period of 15 days. The relative concentrations of the individual species in solution were deduced from integration of the ^31P signals.
To investigate the stability of Pt-BP in near-physiological conditions, we utilized a medium consisting of D2O containing HEPES buffer (50 mM, pH = 7.4) and NaCl (120 mM) at 37 °C, in which we analyzed Pt-BP stability by ^31P-NMR spectroscopy. […] Two other asymmetrical species are visible in the ^31P-NMR spectrum recorded after 3 h as evidenced by the two pairs of doublets falling at 28.15 and 22.98 ppm and 26.25 and 21.51 ppm (indicated by the black squares and diamonds in Supplement Fig. 2A). […]
To simulate the acidic environment in tumor tissue^3,4, we explored the stability of Pt-BP complexes at pD = 5.25 at 37 °C by ^31P-NMR spectroscopy (Supplement Fig. 2B). […] However, the formation of M was slower at acidic pD, while its hydrolysis, with concomitant formation of free bisphosphonate (BP), was faster than at pD 7.4 since Pt-BP and BP were detected after 48 h (Supplement Fig. 2B).

[2] = cited from earlier work

Structure (SMILES): NCCN.NCCN.O.O.O.O=S(=O)([O-])O.[NH3+]CC1(O)P2(=O)[O][Pt][O]P1(=O)[O][Pt][O]2 (centres unmarked) [Pt-BP, dinuclear bis<ethylenediamineplatinum(II) > -2-amino-1-hydroxyethane-1,1-diyl-bisphosphonate complex]
- time of release of both Pt(en) moieties (free BP detected) ([1]; pD 5.25, 50 mM MES): 48 h
- time after which no traces of the starting Pt-BP complex were observed ([1]; pD 7.4, 50 mM HEPES): ≤ 24 h
- time of release of the second Pt(en) moiety (appearance of free BP) ([1]; pD 7.4, 50 mM HEPES): 96 h
- stability in neutral aqueous solution ([2]; pH 7.0, room temperature): stable in neutral aqueous solution (pH 7.0, room temperature) for several months
- stability in water at pH > 8.0 ([2]; pH > 8.0): rearranges rather than decomposes
